Patent US10858366B2 (priority 2016, dated 2020)

Legend:
[1] = molecular target: truncated Influenza A/victoria/75 PA(1-209) (Influenza A virus (strain A/Victoria/3/1975 H3N2), UniProt P31343); test: Endonuclease Inhibition Assay (PA FP Assay); assay type: binding; details: fluorescence polarization, fluorescein-labeled probe
Experimental: Endonuclease Inhibition Assay (PA FP Assay)
Compounds were dissolved and serially diluted in 100% DMSO then 0.5 μl was transferred to 384-well plates. 50 nM truncated Influenza A/victoria/75 PA(1-209) was prepared in assay buffer (20 mM Tris, pH=7.5, 10 mM MgCl2, 0.01% Tween 20, 100 mM NaCl and 1 mM DTT) and 20 ul was added to each well of assay plate with compounds, centrifuged for 1 min at 1000 rpm and incubated for 30 min at room temperature. 20 μl of 20 nM fluorescein-labeled probe [5-(4-(3-carboxy-3-oxopropanoyl)-4-(4-chlorobenzyl)piperidine-1-carbonyl)-2-(6-hydroxy-3-oxo-3H-xanthen-9-yl)benzoic acid] in assay buffer was then added, centrifuged for 1 min at 1000 rpm and incubated for 60 min at room temperature.
Fluorescence polarization was measured on Perkin Elmer Envision plate reader with excitation at 480 nm and emission at 535 nm and reported in millipolarization units (mP). IC50 values were determined relative to wells containing 125 uM of a compound known to bind to the active site of PA and uninhibited wells containing 1.25% DMSO.

[2] = molecular target: RNP_CAL (PB2, PB1, PA, NP, influenza A Luciferase reporter in 293T cells) (Influenza A virus (strain swl A/California/04/2009 H1N1), UniProt C3W5S0); test: cell-based

## N#Cc1cccc([C@H](c2ccc(F)cc2)[C@H]2Cn3ccnc3-c3c(O)c(=O)cnn32)c1 [Example 43, 3-((S)-(4-fluorophenyl)((S)-11-hydroxy-10-oxo-5,6-dihydro-10H-imidazo[2′,1′:3,4]pyrazino[1,2-b]pyridazin-6-yl)methyl)benzonitrile]
[1]
  IC50: 20 nM
[2]
  EC50: 39 nM

## CCC1N(C(c2ccccc2)c2ccccc2)n2ccc(=O)c(O)c2-c2nccn21 (centres unmarked) [Example 78, 6-benzhydryl-5-ethyl-11-hydroxy-5,6-dihydro-10H-imidazo[1,2-d]pyrido[2,1-f][1,2,4]triazin-10-one]
[1]
  IC50: 40 nM
[2]
  EC50: 180 nM

## O=c1cnn2c(c1O)-c1nccn1C[C@@H]2[C@H](c1ccc(F)cc1)c1cncc(F)c1 [Example 19, (S)-6-((R)-(4-fluorophenyl)(5-fluoropyridin-3-yl)methyl)-11-hydroxy-5,6-dihydro-10H-imidazo[2′,1′:3,4]pyrazino[1,2-b]pyridazin-10-one]
[1]
  IC50: 40 nM
[2]
  EC50: 260 nM

## O=c1cnn2c(c1O)-c1nccn1C[C@@H]2[C@H](c1ccccc1)c1ccc(F)cc1 [Example 17, (S)-6-((R)-(4-fluorophenyl)(phenyl)methyl)-11-hydroxy-5,6-dihydro-10H-imidazo[2′,1′:3,4]pyrazino[1,2-b]pyridazin-10-one]
[1]
  IC50: 20 nM
[2]
  EC50: 10 nM

## O=c1ccn2c(c1O)-c1ncc(Cl)n1C[C@@H]2C(c1ccccc1)c1ccccc1 [Example 5, (S)-6-Benzhydryl-3-chloro-11-hydroxy-5,6-dihydro-10H-imidazo[1,2-a]pyrido[2,1-c]pyrazin-10-one]
[1]
  IC50: 20 nM
[2]
  EC50: 100 nM

## O=c1cnn2c(c1O)-c1ncnn1CC2C(c1ccccc1)c1ccccc1 (centres unmarked) [Example 3, 6-benzhydryl-11-hydroxy-5,6-dihydro-10H-[1,2,4]triazolo[5′,1′:3,4]pyrazino[1,2-b]pyridazin-10-one]
[1]
  IC50: 400 nM
[2]
  EC50: 1100 nM

## N#Cc1cccc([C@H](c2cccc(F)c2)[C@H]2Cn3ccnc3-c3c(O)c(=O)cnn32)c1 [Example 46, 3-((R)-(3-fluorophenyl)((S)-11-hydroxy-10-oxo-5,6-dihydro-10H-imidazo[2′,1′:3,4]pyrazino[1,2-b]pyridazin-6-yl)methyl)benzonitrile]
[1]
  IC50: 50 nM
[2]
  EC50: 64 nM

## O=c1ccn2c(c1O)-c1ncc(C(F)F)n1C[C@@H]2C(c1ccccc1)c1ccccc1 [Example 57, (S)-6-benzhydryl-3-(difluoromethyl)-11-hydroxy-5H-imidazo[1,2-a]pyrido[2,1-c]pyrazin-10(6H)-one]
[1]
  IC50: 40 nM
[2]
  EC50: 180 nM

## O=c1cnn2c(c1O)-c1nccn1C[C@@H]2[C@@H](c1ccccc1)c1ccc(F)cc1 [Example 18, (S)-6-((S)-(4-fluorophenyl)(phenyl)methyl)-11-hydroxy-5,6-dihydro-10H-imidazo[2′,1′:3,4]pyrazino[1,2-b]pyridazin-10-one]
[1]
  IC50: 20 nM
[2]
  EC50: 130 nM

## O=c1ccn2c(c1O)-c1ncc(Br)n1C[C@@H]2C(c1ccccc1)c1ccccc1 [Example 7, (S)-6-benzhydryl-3-bromo-11-hydroxy-5H-imidazo[1,2-a]pyrido[2,1-c]pyrazin-10(6H)-one]
[1]
  IC50: 9 nM
[2]
  EC50: 170 nM

## O=c1cnn2c(c1O)-c1nccn1C[C@@H]2[C@@H](c1ccc(F)cc1)c1cccc(F)c1 [Example 24, (S)-6-((S)-(3-fluorophenyl)(4-fluorophenyl)methyl)-11-hydroxy-5,6-dihydro-10H-imidazo[2′,1′:3,4]pyrazino[1,2-b]pyridazin-10-one]
[1]
  IC50: 9 nM
[2]
  EC50: 36 nM

## O=c1cnn2c(c1O)-c1nccn1C[C@@H]2[C@@H](c1ccc(F)cc1)c1ccc(Cl)cc1 [Example 33, (S)-6-((S)-(4-chlorophenyl)(4-fluorophenyl)methyl)-11-hydroxy-5,6-dihydro-10H-imidazo[2′,1′:3,4]pyrazino[1,2-b]pyridazin-10-one]
[1]
  IC50: 20 nM
[2]
  EC50: 110 nM

## O=c1ccn2c(c1O)-c1nccn1CN2C(c1ccccc1)c1ccccc1 [Example 6, 6-benzhydryl-11-hydroxy-5H-imidazo[1,2-d]pyrido[2,1-f][1,2,4]triazin-10(6H)-one]
[1]
  IC50: 40 nM
[2]
  EC50: 190 nM

## O=c1ccn2c(c1O)-c1nccn1C[C@@H]2C(c1ccccc1)c1ccccc1 [Example 4, (S)-6-Benzhydryl-11-hydroxy-5H-imidazo[1,2-a]pyrido[2,1-c]pyrazin-10(6H)-one]
[1]
  IC50: 10 nM
[2]
  EC50: 160 nM

## CC1(C)N(C(c2ccccc2)c2ccccc2)n2ccc(=O)c(O)c2-c2nccn21 [Example 75, 6-benzhydryl-11-hydroxy-5,5-dimethyl-5,6-dihydro-10H-imidazo[1,2-d]pyrido[2,1-f][1,2,4]triazin-10-one]
[1]
  IC50: 100 nM
[2]
  EC50: 300 nM

## O=c1cnn2c(c1O)-c1nccn1C[C@@H]2[C@H](c1ccc(F)cc1)c1ccc(C(F)(F)F)nc1 [Example 20, (S)-6-((R)-(4-fluorophenyl)(6-(trifluoromethyl)pyridin-3-yl)methyl)-11-hydroxy-5,6-dihydro-10H-imidazo[2′,1′:3,4]pyrazino[1,2-b]pyridazin-10-one]
[1]
  IC50: 300 nM
[2]
  EC50: 720 nM
